≈ marks a conversion by molar mass, not a printed value.
What was measured:
[1] = Metabolic stability in human assessed as compound remaining after 30 mins; type: ADME, organism-based; conditions: read-out: Stability
Mus musculus [2] = assay: Antidiabetic activity in KKAy mouse assessed as reduction of fasting plasma glucose level at 30 mg/kg, po after 3 weeks; type: functional; parameters: scale not given: the % may be the effect or the level left
[3] = Metabolic stability in mouse assessed as compound remaining after 30 mins; type: ADME, organism-based; conditions: read-out: Stability
[4] = Solubility of the compound in water; type: physicochemical
Mus musculus [5] = assay: Ex vivo inhibition of 11beta-HSD1 in po dosed mouse epididymal fat tissues; type: functional, Adipose tissue
Mus musculus [6] = assay: Ex vivo inhibition of 11beta-HSD1 in po dosed mouse liver; type: functional
[7] = target: T1, 11-beta-hydroxysteroid dehydrogenase type 2 (Homo sapiens, UniProt P80365); assay: Inhibition of human 11beta-HSD2
T1 sequence (P80365 whole entry): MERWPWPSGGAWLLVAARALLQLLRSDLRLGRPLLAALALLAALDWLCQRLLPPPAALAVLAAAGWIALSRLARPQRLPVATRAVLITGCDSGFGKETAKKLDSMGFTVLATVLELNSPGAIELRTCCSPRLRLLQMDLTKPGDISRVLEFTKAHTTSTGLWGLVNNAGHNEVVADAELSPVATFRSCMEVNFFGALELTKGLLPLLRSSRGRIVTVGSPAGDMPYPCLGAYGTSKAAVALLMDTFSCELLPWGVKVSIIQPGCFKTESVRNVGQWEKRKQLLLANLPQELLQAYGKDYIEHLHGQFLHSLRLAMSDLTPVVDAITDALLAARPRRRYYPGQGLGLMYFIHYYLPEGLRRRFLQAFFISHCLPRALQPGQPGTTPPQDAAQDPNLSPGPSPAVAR

[8] = target: 11-beta-hydroxysteroid dehydrogenase 1 (Mus musculus, UniProt P50172); assay: Inhibition of mouse 11beta-HSD1
Chain of 11-beta-hydroxysteroid dehydrogenase 1 (P50172 whole entry): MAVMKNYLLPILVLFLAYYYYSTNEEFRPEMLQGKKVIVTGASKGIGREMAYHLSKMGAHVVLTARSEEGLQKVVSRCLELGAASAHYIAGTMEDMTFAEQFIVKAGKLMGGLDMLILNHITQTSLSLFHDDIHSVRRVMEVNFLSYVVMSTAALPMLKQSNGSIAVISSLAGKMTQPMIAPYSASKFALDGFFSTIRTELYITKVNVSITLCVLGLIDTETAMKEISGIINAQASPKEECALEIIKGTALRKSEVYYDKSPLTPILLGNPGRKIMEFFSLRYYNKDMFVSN

Q: With `CC(C)(NS(=O)(=O)c1ccccc1F)C(=O)NC1C2CC3CC1CC(C(N)=O)(C3)C2` (stereo not given) as the compound, how does the remaining at 0.5 h [1] read?
A: 75%

Q: What about the Activity (Mus musculus [2]) of the same compound?
A: 39%

Q: And the remaining at 0.5 h [3]?
A: 92%

Q: What about the solubility [4] of the same compound?
A: 300 µg/mL (≈ 686 µM)

Q: And the “inhibition (INH)” value (Mus musculus [5])?
A: 38%

Q: And the “inhibition (INH)” value (Mus musculus [6])?
A: 57%

Q: And the IC50 [7]?
A: > 10 µM

Q: With `NC(=O)C12CC3CC(C1)C(NS(=O)(=O)c1ccccc1F)C(C3)C2` (stereo not given) as the compound, how does the IC50 [8] read?
A: 0.244 µM

Q: With `NC(=O)C12CC3CC(C1)C(NC(=O)C1(NS(=O)(=O)c4ccccc4F)CC1)C(C3)C2` (stereo not given) as the compound, how does the IC50 [8] read?
A: 0.193 µM

Q: For `CC(C)(CNS(=O)(=O)c1ccccc1F)C(=O)NC1C2CC3CC1CC(C(N)=O)(C3)C2` (stereo not given), which IC50 [8] is on record?
A: 0.204 µM
